The term EC50 denotes the concentration needed to bring the measured effect to its halfway point. For orientation: Emax means the size of the effect at its maximum, as opposed to the concentration needed.

SMILES strings stand for the structures. *1 amine or outer side, *2 acyl side, *3 side chain or, on linkers, in order; H or OH if unused. Where a SMILES comes first, the peptide text is derived from it. Side-chain parts run from the residue outwards. [ ]: non-standard residue; d: D form. The star is where a group is joined. Isobutyryl(2-(3-CN-5-F-Ph)) = CC(C)(C(=O)*)c1cc(F)cc(C#N)c1; β2hLeu(2S) = CC(C)C[C@@H](CN[*:1])C(=O)[*:2]; C20 diacid = O=C(O)CCCCCCCCCCCCCCCCCCC(=O)*; γGlu = O=C(O)[C@H](CCC(=O)[*:2])N[*:1]; AEEA = NCCOCCOCC(=O)O; Aib = CC(C)(N)C(=O)O

The source of these data is patent publication US12281149B2, “Modulators of G-protein coupled receptors” (priority 2021, dated 2025).

What all share (assay type): cell-based
In experiment [1] the target is T1, GLP-1 receptor (Homo sapiens, UniProt P43220). Nature of the experiment: HitHunter cAMP assay, GLP-1 receptor.
T1 sequence (P43220 24-463): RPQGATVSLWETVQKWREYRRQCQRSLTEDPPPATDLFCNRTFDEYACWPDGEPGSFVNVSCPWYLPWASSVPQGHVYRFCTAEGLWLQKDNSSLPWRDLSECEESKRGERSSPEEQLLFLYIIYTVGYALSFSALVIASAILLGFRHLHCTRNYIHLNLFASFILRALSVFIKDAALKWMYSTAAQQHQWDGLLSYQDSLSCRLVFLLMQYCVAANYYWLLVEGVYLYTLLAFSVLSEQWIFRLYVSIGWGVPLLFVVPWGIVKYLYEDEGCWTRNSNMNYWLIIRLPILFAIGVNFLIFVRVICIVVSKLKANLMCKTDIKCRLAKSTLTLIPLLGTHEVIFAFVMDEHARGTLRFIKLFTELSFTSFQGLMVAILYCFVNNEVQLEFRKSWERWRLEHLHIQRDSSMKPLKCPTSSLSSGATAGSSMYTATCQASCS
Experiment [2] addresses T2, GIP receptor (Homo sapiens, UniProt P48546).
T2 sequence (P48546 22-466): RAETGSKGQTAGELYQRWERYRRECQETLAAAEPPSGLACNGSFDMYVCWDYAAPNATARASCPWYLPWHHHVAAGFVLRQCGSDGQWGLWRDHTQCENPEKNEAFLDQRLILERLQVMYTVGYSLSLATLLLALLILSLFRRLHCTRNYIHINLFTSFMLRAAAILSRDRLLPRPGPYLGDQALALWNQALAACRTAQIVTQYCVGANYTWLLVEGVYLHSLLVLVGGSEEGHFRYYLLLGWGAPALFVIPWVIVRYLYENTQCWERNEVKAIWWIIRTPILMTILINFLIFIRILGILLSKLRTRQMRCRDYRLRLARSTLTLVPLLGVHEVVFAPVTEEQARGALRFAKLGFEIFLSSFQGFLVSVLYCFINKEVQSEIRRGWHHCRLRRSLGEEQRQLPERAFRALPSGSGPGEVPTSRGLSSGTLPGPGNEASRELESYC
Briefly: HitHunter cAMP assay, GIP receptor.

Experiment [3] addresses T2, GIP receptor. Briefly: PathHunter β-arrestin assay, GIP receptor. The arrangement: host or cells: PathHunter CHO-K1 GIPR β-Arrestin Cell Line. Particulars: β-arrestin-2 recruitment, PathHunter CHO-K1 GIPR β-Arrestin Cell Line, 90 min at 37° C.; normalized to GIP; read-out: GIPR β Arrestin EC50. For orientation: Recruitment of arrestin is a read-out of receptor activation apart from second messengers.

Experiment [4] addresses T1, GLP-1 receptor. Nature of the experiment: PathHunter β-arrestin assay, GLP-1 receptor. The arrangement: host or cells: PathHunter CHO-K1 GLP1R β-Arrestin Cell Line. Particulars: β-arrestin-2 recruitment, PathHunter CHO-K1 GLP1R β-Arrestin Cell Line, 90 min at 37° C.; normalized to GLP-1; read-out: GLP-1R β Arrestin EC50.

As for `CC[C@H](C)[C@H](NC(=O)[C@H](CC(C)C)NC(=O)[C@H](Cc1c[nH]c2ccccc12)NC(=O)[C@H](CCC(N)=O)NC(=O)[C@@H](NC(=O)[C@H](Cc1ccccc1)NC(=O)[C@H](C)NC(=O)[C@H](CCCCNC(=O)COCCOCCNC(=O)COCCOCCNC(=O)CC[C@H](NC(=O)CCCCCCCCCCCCCCCCCCC(=O)O)C(=O)O)NC(=O)[C@H](CCC(N)=O)NC(=O)[C@H](C)NC(=O)[C@@H](NC(=O)[C@H](CCCCN)NC(=O)[C@H](CC(=O)O)NC(=O)[C@H](CC(C)C)NC(=O)C(C)(C)NC(=O)[C@@H](NC(=O)[C@H](CO)NC(=O)[C@H](Cc1ccc(O)cc1)NC(=O)[C@H](CC(=O)O)NC(=O)[C@H](CO)NC(=O)[C@@H](NC(=O)[C@H](Cc1ccccc1)NC(=O)[C@@H](NC(=O)CNC(=O)[C@H](CCC(=O)O)NC(=O)[C@H](CNC(=O)C(C)(C)c1cc(F)cc(C#N)c1)CC(C)C)[C@@H](C)O)[C@@H](C)O)[C@@H](C)CC)[C@@H](C)CC)C(C)C)C(=O)N[C@@H](C)C(=O)NCC(=O)NCC(=O)N1CCC[C@H]1C(=O)N[C@@H](CO)C(=O)N[C@@H](CO)C(=O)NCC(=O)N[C@@H](C)C(=O)N1CCC[C@H]1C(=O)N1CCC[C@H]1C(=O)N1CCC[C@H]1C(=O)N[C@@H](CO)C(N)=O` [Compound 193] ({Isobutyryl(2-(3-CN-5-F-Ph))}-[β2hLeu(2S)]EGTFTSDYSI[Aib]LDKIAQK([AEEA-AEEA-γGlu-C20 diacid])AFVQWLIAGGPSSGAPPPS-NH2), the EC50 at GLP-1 receptor [1] (CHO cells stably expressing human GLP-1 receptor, cAMP accumulation, 30 min, read-out: EC50 GLP-1R) is 10 to 100 nM; at GIP receptor [2] (CHO cells stably expressing GIP receptor, cAMP accumulation, 30 min, read-out: EC50 GIP-1R), 100 to 1000 nM; at GIP receptor [3] it was > 1000 nM; on GLP-1 receptor [4], > 1000 nM. In addition, the Emax amounted to 77% on GLP-1 receptor [1] (CHO cells, cAMP, normalized to maximum signal from GLP-1 (high) and DMSO (low), read-out: Emax GLP-1R); 70% on GIP receptor [2] (CHO cells, cAMP, normalized to maximum signal from GIP (high) and DMSO (low), read-out: Emax GIP-1R).
